These results are taken from US20200390899A1, “AMINOBENZAZEPINE COMPOUNDS, IMMUNOCONJUGATES, AND USES THEREOF” (BOLT BIOTHERAPEUTICS, INC., priority 2019, published 2020).

Where two headings read alike, the source gives them in different places.

Experiment [1] concerns the target T1, human TLR7 (Homo sapiens, UniProt Q9NYK1).
T1 construct: host or cells: HEK293 reporter cells
T1 sequence (Q9NYK1 27-1049): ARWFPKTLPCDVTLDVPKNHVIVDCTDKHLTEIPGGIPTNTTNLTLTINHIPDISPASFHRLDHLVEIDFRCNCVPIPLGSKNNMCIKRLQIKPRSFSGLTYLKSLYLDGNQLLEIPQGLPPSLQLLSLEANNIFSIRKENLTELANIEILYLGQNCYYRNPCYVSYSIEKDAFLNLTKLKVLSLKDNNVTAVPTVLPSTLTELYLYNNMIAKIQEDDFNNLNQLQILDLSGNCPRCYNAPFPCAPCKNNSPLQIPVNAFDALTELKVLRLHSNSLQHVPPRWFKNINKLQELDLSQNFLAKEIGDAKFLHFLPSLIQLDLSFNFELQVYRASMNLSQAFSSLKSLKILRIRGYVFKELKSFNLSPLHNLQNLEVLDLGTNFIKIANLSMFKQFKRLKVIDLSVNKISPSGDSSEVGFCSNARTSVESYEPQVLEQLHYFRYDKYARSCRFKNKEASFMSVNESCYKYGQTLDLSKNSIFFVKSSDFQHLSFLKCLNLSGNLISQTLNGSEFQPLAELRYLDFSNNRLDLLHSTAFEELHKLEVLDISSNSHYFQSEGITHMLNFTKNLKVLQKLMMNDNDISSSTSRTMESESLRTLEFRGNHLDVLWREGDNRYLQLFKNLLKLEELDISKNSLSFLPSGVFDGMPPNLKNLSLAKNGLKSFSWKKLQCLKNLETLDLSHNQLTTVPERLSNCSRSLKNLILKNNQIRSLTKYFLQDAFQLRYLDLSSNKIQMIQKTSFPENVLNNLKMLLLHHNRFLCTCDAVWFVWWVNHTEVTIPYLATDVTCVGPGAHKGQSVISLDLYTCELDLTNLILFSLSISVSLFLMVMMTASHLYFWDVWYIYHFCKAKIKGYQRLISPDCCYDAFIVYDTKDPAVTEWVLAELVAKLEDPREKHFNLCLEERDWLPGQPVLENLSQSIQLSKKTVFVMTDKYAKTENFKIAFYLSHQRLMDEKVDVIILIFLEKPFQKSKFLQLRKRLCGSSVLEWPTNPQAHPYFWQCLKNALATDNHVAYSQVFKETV
Nature of the experiment: HEK293 NFKB reporter assay, human TLR7. The format is cell-based. As to the method:
(§1) Each compound was synthesized and purified by the methods in the Examples provided herein, characterized by mass spectrometry, and shown to have the mass indicated. Activity against HEK293 NFKB reporter cells expressing human TLR7 or human TLR8 was measured according to Example 68.
(§2) HEK293 reporter cells expressing human TLR7 or human TLR8 were purchased from Invivogen and vendor protocols were followed for cellular propagation and experimentation. Briefly, cells were grown to 80-85% confluence at 5% CO2 in DMEM supplemented with 10% FBS, Zeocin, and Blasticidin. Cells were then seeded in 96-well flat plates at 4×10^4cells/well with substrate containing HEK detection medium and immunostimulatory molecules. Activity was measured using a plate reader at 620-655 nm wavelength.
On the technique in general: In a reporter assay the amount or activity of a reporter protein is the signal.

The target in experiment [2] is T2, human TLR8 (Homo sapiens, UniProt Q9NR97).
T2 construct: host or cells: HEK293 reporter cells
T2 sequence (Q9NR97 27-1041): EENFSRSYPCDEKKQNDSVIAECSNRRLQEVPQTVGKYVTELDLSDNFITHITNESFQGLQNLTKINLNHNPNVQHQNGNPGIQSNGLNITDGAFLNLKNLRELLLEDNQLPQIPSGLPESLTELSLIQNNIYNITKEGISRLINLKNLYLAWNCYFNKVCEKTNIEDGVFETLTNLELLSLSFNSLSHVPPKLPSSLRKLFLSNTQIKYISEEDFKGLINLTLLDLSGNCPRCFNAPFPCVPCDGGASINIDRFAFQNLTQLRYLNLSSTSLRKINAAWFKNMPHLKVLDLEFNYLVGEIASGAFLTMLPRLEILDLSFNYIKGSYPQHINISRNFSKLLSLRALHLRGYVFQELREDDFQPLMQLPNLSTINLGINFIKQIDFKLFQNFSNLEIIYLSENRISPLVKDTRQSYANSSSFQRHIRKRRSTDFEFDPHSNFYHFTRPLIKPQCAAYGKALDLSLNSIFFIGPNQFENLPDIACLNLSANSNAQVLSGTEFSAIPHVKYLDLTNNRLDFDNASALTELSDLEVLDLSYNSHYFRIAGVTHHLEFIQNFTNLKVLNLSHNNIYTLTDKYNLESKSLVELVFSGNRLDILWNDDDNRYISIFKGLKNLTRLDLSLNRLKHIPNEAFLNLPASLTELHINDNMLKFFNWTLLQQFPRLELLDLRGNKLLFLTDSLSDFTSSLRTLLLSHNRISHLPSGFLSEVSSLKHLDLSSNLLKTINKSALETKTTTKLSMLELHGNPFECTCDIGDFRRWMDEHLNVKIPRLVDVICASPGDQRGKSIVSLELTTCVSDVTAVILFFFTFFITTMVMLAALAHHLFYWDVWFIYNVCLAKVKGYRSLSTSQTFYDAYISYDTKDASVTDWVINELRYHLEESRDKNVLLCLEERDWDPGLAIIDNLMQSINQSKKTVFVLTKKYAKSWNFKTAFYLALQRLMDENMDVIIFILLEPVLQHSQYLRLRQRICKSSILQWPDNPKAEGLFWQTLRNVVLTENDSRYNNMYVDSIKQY
Nature of the experiment: HEK293 NFKB reporter assay, human TLR8. The format is cell-based. The procedure: as §1, §2

[3] abbreviates: Table 1c, HEK293 reporter cells expressing human TLR7, read-out: HEK293 hTLR7 EC50.
Setting [4] is: Table 1c, HEK293 reporter cells expressing human TLR8, read-out: HEK293 hTLR8 EC50.
Where [5] appears, read: Table 1a, HEK293 reporter cells expressing human TLR7, read-out: HEK293 hTLR7 EC50.
The mark [6] stands for this setting: Table 1a, HEK293 reporter cells expressing human TLR8, read-out: HEK293 hTLR8 EC50.
Where [7] appears, read: Table 1b, HEK293 reporter cells expressing human TLR7, read-out: HEK293 hTLR7 EC50.
The mark [8] stands for this setting: Table 1b, HEK293 reporter cells expressing human TLR8, read-out: HEK293 hTLR8 EC50.

As a reminder, the EC50 is the concentration needed to bring the measured effect to its halfway point. As for `CCCN(CCC)C(=O)C1=Cc2ccc(CCCCCNC(=O)OC(C)(C)C)cc2N=C(N)C1` [Bz-69], the EC50 in experiment [1] (setting [3]) amounted to 3.21 µM; in experiment [2] (setting [4]) it was 6670 nM.

On to `CCCN(CCC(F)(F)F)C(=O)C1=Cc2ccc(C(=O)Nc3ccccc3)cc2N=C(N)C1` [Bz-75], for which, in experiment [2] (setting [4]), the EC50 worked out at 246 nM.

Turning to `CCCN(CCC)C(=O)C1=Cc2ccc(-c3cccc(S(=O)(=O)N4CC5(CCNC5)C4)c3)cc2N=C(N)C1` [Bz-53], the EC50 in experiment [2] (setting [4]) was determined as 249 nM.

For `CCCN(CCNC(=O)OC(C)(C)C)C(=O)C1=Cc2ccc(-c3cccc(S(=O)(=O)N4CC(CO)C4)c3)cc2N=C(N)C1` [Bz-10, tert-butyl (2-(2-amino-8-(3-((3-(hydroxymethyl)azetidin-1-yl)sulfonyl)phenyl)-N-propyl-3H-benzo[b]azepine-4-carboxamido)ethyl)carbamate], the figures for the half-maximal effective concentration (EC50) in experiment [1] (setting [5]) and in experiment [2] (setting [6]) were more than 9 µM and more than 9000 nM, respectively.

Consider `CCCN(Cc1ccc(CN2CCN(C(=O)OC(C)(C)C)CC2)cc1)C(=O)C1=Cc2ccc(-c3cccc(S(=O)(=O)N4CC(CO)C4)c3)cc2N=C(N)C1` [Bz-44], for which, in experiment [1] (setting [3]), the concentration for a half-maximal effect (EC50) was not below 9 µM.

For `CCCN(CCCOCCCN)C(=O)C1=Cc2ccc(-c3cccc(S(=O)(=O)N4CC(CO)C4)c3)cc2N=C(N)C1` [Bz-18, 2-amino-N-(3-(3-aminopropoxy)propyl)-8-(3-((3-(hydroxymethyl)azetidin-1-yl)sulfonyl)phenyl)-N-propyl-3H-benzo[b]azepine-4-carboxamide], the EC50 came to 1.99 µM in experiment [1] (setting [7]) and 3400 nM in experiment [2] (setting [8]).

On to `CCCN(C/C=C/CN)C(=O)C1=Cc2ccc(-c3cccc(S(=O)(=O)N4CC(CO)C4)c3)cc2N=C(N)C1` [Bz-22, 2-amino-N-[(E)-4-aminobut-2-enyl]-8-[3-[3-(hydroxymethyl)azetidin-1-yl]sulfonylphenyl]-N-propyl-3H-1-benzazepine-4-carboxamide], for which the values for the EC50 in experiment [1] (setting [7]) and in experiment [2] (setting [8]) were more than 9 µM and more than 9000 nM, respectively.

Consider `CCCN(CCCNC(=O)OCC)C(=O)C1=Cc2ccc(-c3cccc(S(=O)(=O)N4CC(CO)C4)c3)cc2N=C(N)C1` [Bz-13, ethyl N-[3-[[2-amino-8-[3-[3-(hydroxymethyl)azetidin-1-yl]sulfonylphenyl]-3H-1-benzazepine-4-carbonyl]-propyl-amino]propyl]carbamate], for which the EC50 was determined as 1.37 µM in experiment [1] and 134 nM in experiment [2].

Consider `CCCN(OCC)C(=O)C1=Cc2ccc(-c3cccc(S(=O)(=O)N4CC(CO)C4)c3)cc2N=C(N)C1` [Bz-42], for which the half-maximal effective concentration (EC50) in experiment [1] (setting [3]) was not below 9 µM; in experiment [2] (setting [4]), 49 nM.

As to `CCCN(CCC)C(=O)C1=Cc2ccc(-c3cccc(S(=O)(=O)N4CC(CN)C4)c3)cc2N=C(N)C1` [Bz-15, 2-amino-8-[3-[3-(aminomethyl)azetidin-1-yl]sulfonylphenyl]-N,N-dipropyl-3H-1-benzazepine-4-carboxamide], the values for the EC50 in experiment [1] (setting [5]) and in experiment [2] (setting [6]) were more than 9 µM and 103 nM, respectively.

As to `CCCN(CCCNC(=O)c1ccc(OCC)cc1)C(=O)C1=Cc2ccc(-c3cccc(S(=O)(=O)N4CC(CO)C4)c3)cc2N=C(N)C1` [Bz-51], the figures for the EC50 in experiment [1] (setting [3]) and in experiment [2] (setting [4]) were 1.43 µM and 1920 nM, respectively.

Turning to `CCCN(CCC(F)(F)F)C(=O)C1=Cc2ccc(-c3cccc(S(=O)(=O)N4CC(CO)C4)c3)cc2N=C(N)C1` [Bz-31, 2-amino-8-[3-[3-(hydroxymethyl)azetidin-1-yl]sulfonylphenyl]-N-propyl-N-(3,3,3-trifluoropropyl)-3H-1-benzazepine-4-carboxamide], the EC50 was more than 9 µM in experiment [1] (setting [7]) and 341 nM in experiment [2] (setting [8]).

Take `CCCN(NCC)C(=O)C1=Cc2ccc(-c3cccc(S(=O)(=O)N4CC(CO)C4)c3)cc2N=C(N)C1` [Bz-71]: the EC50 in experiment [2] (setting [4]) worked out at 2750 nM.

In the case of `CCCN(CCC)C(=O)C1=Cc2ccc(C#CCCCN)cc2N=C(N)C1` [Bz-68], the 50% effective concentration (EC50) stood at 4.6 µM in experiment [1] (setting [3]) and 3070 nM in experiment [2] (setting [4]).

`CCCN(CCOC)C(=O)C1=Cc2ccc(-c3cccc(S(=O)(=O)N4CC(CO)C4)c3)cc2N=C(N)C1` [Bz-60]: the EC50 in experiment [2] (setting [4]) is 288 nM.

As to `CCCN(CCC)C(=O)C1=Cc2ccc(-c3cccc(S(=O)(=O)N4CC5(CNC5)C4)c3)cc2N=C(N)C1` [Bz-52], in experiment [2] (setting [4]), the EC50 was 1320 nM.

For `CCCN(CCCNC(=O)Nc1cccc(C#N)c1)C(=O)C1=Cc2ccc(-c3cccc(S(=O)(=O)N4CC(CO)C4)c3)cc2N=C(N)C1` [Bz-12, 2-amino-N-[3-[(3-cyanophenyl)carbamoylamino]propyl]-8-[3-[3-(hydroxymethyl)azetidin-1-yl]sulfonylphenyl]-N-propyl-3H-1-benzazepine-4-carboxamide], the EC50 in experiment [1] (setting [5]) was determined as 2.49 µM; in experiment [2] (setting [6]), 2380 nM.

Turning to `CCCN(CCC)C(=O)C1=Cc2ccc(-c3c(C)n[nH]c3C)cc2N=C(N)C1` [Bz-45], in experiment [2] (setting [4]), the concentration for a half-maximal effect (EC50) was found to be 345 nM.

Turning to `CCCN(CCC)C(=O)C1=Cc2ccc(-c3cccc(S(=O)(=O)N4CCC(N)CC4)c3)cc2N=C(N)C1` [Bz-54], the EC50 in experiment [2] (setting [4]) was 198 nM.

`CCCN(CCC)C(=O)C1=Cc2ccc(-c3cccc(S(=O)(=O)N4CCC5(CCNC5)C4)c3)cc2N=C(N)C1` (stereo not shown) [Bz-57]: in experiment [2] (setting [4]), the half-maximal effective concentration (EC50) was determined as 741 nM.

In the case of `CCCNN(CC)C(=O)C1=Cc2ccc(-c3cccc(S(=O)(=O)N4CC(CO)C4)c3)cc2N=C(N)C1` [Bz-72], in experiment [2] (setting [4]), the concentration giving a half-maximal response (EC50) is 4250 nM.

For `CCCN(Cc1ccc(CN2CCN(C(=O)OC(C)(C)C)CC2)cc1)C(=O)C1=Cc2ccc(-c3cccc(S(=O)(=O)N4CC(CO)C4)c3)cc2N=C(N)C1` [Bz-30, tert-butyl 4-[[4-[[[2-amino-8-[3-[3-(hydroxymethyl)azetidin-1-yl]sulfonylphenyl]-3H-1-benzazepine-4-carbonyl]-propyl-amino]methyl]phenyl]methyl]piperazine-1-carboxylate], in experiment [1] (setting [7]), the EC50 was more than 9 µM.

Consider `CCCN(CCC)C(=O)C1=Cc2ccc(CCCCCN)cc2N=C(N)C1` [Bz-74], for which the 50% effective concentration (EC50) in experiment [2] (setting [4]) turned out to be 2560 nM.

In the case of `CCCN(Cc1ccc(CN)cc1)C(=O)C1=Cc2ccccc2N=C(N)C1` [Bz-59], the concentration for a half-maximal effect (EC50) in experiment [2] (setting [4]) came out at 870 nM.

As for `CCCN(CCC)C(=O)C1=Cc2ccc(-c3cccc(S(=O)(=O)N4[C@@H]5CNC[C@@H]54)c3)cc2N=C(N)C1` (stereo partly shown) [Bz-56], the EC50 in experiment [2] (setting [4]) came out at 111 nM.

On to `CCCN(CCC)C(=O)C1=Cc2ccc(-c3c(C)nn(S(=O)(=O)N4CC(CO)C4)c3C)cc2N=C(N)C1` [Bz-48], for which the concentration for a half-maximal effect (EC50) in experiment [2] (setting [4]) is 499 nM.
